Columns and labels:
5-HT1A receptor = target: T1, 5-HT1A receptor (Homo sapiens, UniProt P08908); experiment: cell-based; conditions: Ca^2+ flux, agonist; for EC50: read-out: 5-HT1A EC50
T1 construct: host or cells: CHO cells
T1 sequence (P08908 1-422): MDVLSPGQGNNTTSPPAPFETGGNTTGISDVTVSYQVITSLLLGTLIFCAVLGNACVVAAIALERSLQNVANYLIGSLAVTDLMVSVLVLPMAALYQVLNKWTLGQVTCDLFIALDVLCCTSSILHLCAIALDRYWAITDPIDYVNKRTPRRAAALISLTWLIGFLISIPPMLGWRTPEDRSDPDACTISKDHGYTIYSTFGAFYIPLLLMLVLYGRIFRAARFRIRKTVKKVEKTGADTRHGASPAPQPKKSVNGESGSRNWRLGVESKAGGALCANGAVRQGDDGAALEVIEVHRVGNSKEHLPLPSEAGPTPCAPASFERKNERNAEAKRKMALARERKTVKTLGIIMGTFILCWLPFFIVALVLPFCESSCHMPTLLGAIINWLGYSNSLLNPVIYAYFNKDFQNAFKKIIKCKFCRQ
Description: (§1) Functional Assays at 5-HT2A, 5-HT2B, and 5-HT1A. Agonist activity at 5-HT2A, 5-HT2B, and 5-HT1A receptors was determined using a FLIPR Ca^2+ flux assay at WuXi AppTec (Hong Kong) Limited according to their standard protocols. Briefly, stably transfected cells expressing the receptor of interest (HEK293 for 5-HT2A and 5-HT2B; CHO cells for 5-HT1A) were grown and plated in a 384 well plate and incubated at 37° C. and 5% CO2 overnight. A solution of 250 mM probenecid in 1 mL FLIPR assay buffer was prepared fresh. This was combined with a fluorescent dye (Fluo-4 Direct™) to make a final assay concentration of 2.5 mM. […] The fluorescent dye was then added to the assay plate along with assay buffer to a final volume of 40 μL. The cell plate was incubated for 50 min at 37° C. and 5% CO2 and placed into the FLIPR Tetra along with the compound plate. 10 μL of references and compounds were then transferred from the compound plate into the cell plate and the fluorescent signal was read.

5-HT2B receptor = target: T2, 5-HT2B receptor (Homo sapiens, UniProt P41595); experiment: cell-based; conditions: Ca^2+ flux, agonist; for EC50: read-out: 5-HT2B EC50
T2 construct: host or cells: HEK293
Description: as §1

5-HT1B receptor = 5-HT1B receptor (Homo sapiens, UniProt P28222); experiment: cAMP accumulation agonist assay at 5-HT1B; format: cell-based; conditions: cAMP, agonist; for EC50: read-out: 5-HT1B EC50
Description: Disclosed compounds were tested for agonist activity at several serotonin receptor subtypes (5-HT2A, […], 5-HT2C, and 5-HT1A) using Ca^2+ flux functional assays and the 5-HT1B receptor using a cAMP accumulation assay, with the results summarized in Table 4. […] Potent agonist activity was also observed at the other serotonin receptors tested, although the selectivity profile among the receptors varied across compounds. […]. However, at the same time, the N-propyl compounds were more efficacious agonists at 5-HT2B than the corresponding N-methyl compounds. The selectivity of disclosed compounds for 5-HT2A over 5-HT2C and 5-HT1A was less predictable and varied widely across compounds, ranging from ˜1:6 to ˜20:1 (2C/2A) in the case of 5-HT2C and from ˜1:4 to >100:1 (1A/2A) in the case of 5-HT1A. […] An azetidinyl amide substituent tended to increase potency at 5-HT1A relative to 5-HT2A.
Functional Assay at 5-HT1B. Agonist activity at 5-HT1B was determined using a cAMP accumulation protocol at WuXi AppTec (Hong Kong) Limited according to their standard protocols. Briefly, stably transfected cells were plated in an OptiPlate-384 well plate, incubated at RT for 60 mins, and cAMP standard solution (800 nM, 10 μL) was added to the blank well. Then, 10 μL detection reagent was added to each well, the plate incubated for 60 mins at RT, and the plate read using EnVision.

[1] = Metabolic stability in human liver microsomes (HLM); format: in vitro ADME; conditions: both sexes, human, pooled human liver microsomes, pH 7.4, 0.50 mg protein per mL
From the text: HLM Stability. Pooled HLM from adult male and female donors (Corning 452117) were used.

5-HT2A receptor [2] = target: T3, 5-HT2A receptor (Homo sapiens, UniProt P28223); experiment: biochemical; format: binding; conditions: 1 nM [^3H]ketanserin, HEK293 stable cell line; read-out: 5-HT2A Receptor Ki (nM) ([^3H]ketanserin)
T3 construct: host or cells: HEK293
Description: Affinity of the test compounds for the 5-HT2A receptor was determined in radioligand binding experiments with [^3H]ketanserin by WuXi AppTec (Hong Kong) Limited, using methods adapted from the literature and under conditions described in Table 1.

5-HT2A receptor [3] = target: T3, 5-HT2A receptor; experiment: cell-based; format: cell-based; conditions: for 5-HT2A % Act @ Max Dose / EC50: Ca^2+ flux, agonist; for EC50: read-out: 5-HT2A EC50
Description: as §1

T3 sequence (P28223 whole entry): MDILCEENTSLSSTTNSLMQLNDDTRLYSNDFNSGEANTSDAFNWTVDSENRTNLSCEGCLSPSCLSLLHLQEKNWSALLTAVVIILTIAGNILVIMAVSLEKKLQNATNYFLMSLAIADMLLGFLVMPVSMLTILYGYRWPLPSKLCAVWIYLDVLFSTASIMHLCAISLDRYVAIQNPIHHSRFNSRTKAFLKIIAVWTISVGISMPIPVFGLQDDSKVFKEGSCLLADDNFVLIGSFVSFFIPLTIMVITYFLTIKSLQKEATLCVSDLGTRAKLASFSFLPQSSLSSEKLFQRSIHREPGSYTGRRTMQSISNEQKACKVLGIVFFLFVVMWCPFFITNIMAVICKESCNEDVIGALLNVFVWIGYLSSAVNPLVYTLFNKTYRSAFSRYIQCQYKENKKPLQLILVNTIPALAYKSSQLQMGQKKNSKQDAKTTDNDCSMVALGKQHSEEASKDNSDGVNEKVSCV
T2 sequence (P41595 whole entry): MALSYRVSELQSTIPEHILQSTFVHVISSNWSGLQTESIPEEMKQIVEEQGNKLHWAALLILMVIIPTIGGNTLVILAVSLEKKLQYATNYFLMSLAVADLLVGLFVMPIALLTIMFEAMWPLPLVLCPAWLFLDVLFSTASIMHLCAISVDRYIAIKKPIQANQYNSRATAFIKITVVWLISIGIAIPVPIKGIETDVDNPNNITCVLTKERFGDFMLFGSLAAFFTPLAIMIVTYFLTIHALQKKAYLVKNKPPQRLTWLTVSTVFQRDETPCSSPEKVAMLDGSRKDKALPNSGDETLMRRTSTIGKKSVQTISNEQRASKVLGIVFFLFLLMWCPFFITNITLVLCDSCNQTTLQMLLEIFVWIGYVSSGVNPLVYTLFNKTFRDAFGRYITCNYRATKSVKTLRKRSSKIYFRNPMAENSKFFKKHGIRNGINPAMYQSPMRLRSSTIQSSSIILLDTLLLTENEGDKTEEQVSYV
Sequence of 5-HT1B receptor (P28222 whole entry): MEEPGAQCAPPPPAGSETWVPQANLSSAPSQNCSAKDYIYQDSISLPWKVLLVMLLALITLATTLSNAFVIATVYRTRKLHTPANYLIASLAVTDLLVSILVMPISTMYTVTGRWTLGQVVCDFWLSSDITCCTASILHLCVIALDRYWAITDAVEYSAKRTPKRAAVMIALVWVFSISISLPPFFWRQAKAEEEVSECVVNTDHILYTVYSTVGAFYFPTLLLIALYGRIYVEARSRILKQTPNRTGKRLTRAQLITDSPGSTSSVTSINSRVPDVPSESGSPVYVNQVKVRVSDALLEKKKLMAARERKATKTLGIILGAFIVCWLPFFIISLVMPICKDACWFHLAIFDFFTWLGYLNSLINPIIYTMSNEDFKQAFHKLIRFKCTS

| SMILES | 5-HT1A % Act @ Max Dose (5-HT1A receptor) [%] | EC50 (5-HT1A receptor) [nM] | 5-HT2B % Act @ Max Dose (5-HT2B receptor) [%] | EC50 (5-HT2B receptor) [nM] | 5-HT1B % Act @ Max Dose (5-HT1B receptor) [%] | EC50 (5-HT1B receptor) [nM] | half-life at 1 μM [1] [min] | microsomal CLint at 1 μM [1] [µL/min/mg] | Ki (5-HT2A receptor [2]) [nM] | 5-HT2A % Act @ Max Dose (5-HT2A receptor [3]) [%] | EC50 (5-HT2A receptor [3]) [nM] | selectivity for 5-HT2A compared to the other serotonin receptors tested (in words) (5-HT2A receptor [3]; functional agonist assays) | agonist activity at serotonin receptors (in words) (5-HT2A receptor [3]; Ca^2+ flux / cAMP functional assays, receptors tested) |
| --- | --- | --- | --- | --- | --- | --- | --- | --- | --- | --- | --- | --- | --- |
| CC[C@@H](C)NC(=O)[C@@H]1C=C2c3cccc4[nH]cc(c34)C[C@H]2N(CCC(F)(F)F)C1 [Compound 40, (6aR,9R)—N—((R)-sec-butyl)-7-(3,3,3-trifluoropropyl)-4,6,6a,7,8,9-hexahydroindolo[4,3-fg]quinoline-9-carboxamide] | 22.27 | > 10000 | 8.46 | > 10000 | 62.14 | 8310 | 3.2 | 435 | 37.7 | 45.12 | 169 | highly selective |  |
| CCN(CC)C(=O)[C@@H]1C=C2c3cccc4[nH]c(Br)c(c34)C[C@H]2N(CCCF)C1 [Compound 41, (6aR,9R)-5-bromo-N,N-diethyl-7-(3-fluoropropyl)-4,6,6a,7,8,9-hexahydroindolo[4,3-fg]quinoline-9-carboxamide] | 39.75 | > 10000 | 84.51 | 509 | 61.49 | > 10000 | 10.7 | 130 | 0.58 | 75.44 | 116 |  |  |
| CCN(CC)C(=O)[C@@H]1C=C2c3cccc4[nH]c(Br)c(c34)C[C@H]2N(CCC(F)(F)F)C1 [Compound 42, (6aR,9R)-5-bromo-N,N-diethyl-7-(3,3,3-trifluoropropyl)-4,6,6a,7,8,9-hexahydroindolo[4,3-fg]quinoline-9-carboxamide] | 9.13 | > 10000 | 2.58 | > 10000 | 33.13 | > 10000 | 11.1 | 125 | 1.84 | 8.29 | > 1000 |  | no agonist activity |
| CC[C@@H](C)NC(=O)[C@@H]1C=C2c3cccc4[nH]c(Br)c(c34)C[C@H]2N(C)C1 [Compound 43, (6aR,9R)-5-bromo-N—((R)-sec-butyl)-7-methyl-4,6,6a,7,8,9-hexahydroindolo[4,3-fg]quinoline-9-carboxamide] | 6.30 | > 10000 | 1.00 | > 10000 | 83.76 | 311 | 24.8 | 56 | 1.13 | 39.32 | 118 |  |  |
| CCC(CC)NC(=O)[C@@H]1C=C2c3cccc4[nH]c(Br)c(c34)C[C@H]2N(C)C1 [Compound 44, (6aR,9R)-5-bromo-N-(pentan-3-yl)-7-methyl-4,6,6a,7,8,9-hexahydroindolo[4,3-fg]quinoline-9-carboxamide] | 16.56 | > 10000 | 15.68 | > 10000 | 68.53 | 1270 | 9 | 153 | 0.76 | 29.90 | 129 |  |  |
| CCC[C@@H](C)NC(=O)[C@@H]1C=C2c3cccc4[nH]c(Br)c(c34)C[C@H]2N(C)C1 [Compound 45, (6aR,9R)-5-bromo-N—((R)-pentan-2-yl)-7-methyl-4,6,6a,7,8,9-hexahydroindolo[4,3-fg]quinoline-9-carboxamide] | 12.53 | > 10000 | −0.31 | > 10000 | 87.10 | 245 | 7.9 | 176 | 0.38 | 22.28 | 133 |  |  |
| CCCN1C[C@H](C(=O)N[C@H](C)CC)C=C2c3cccc4[nH]c(Br)c(c34)C[C@H]21 [Compound 46, (6aR,9R)-5-bromo-N—((R)-sec-butyl)-7-propyl-4,6,6a,7,8,9-hexahydroindolo[4,3-fg]quinoline-9-carboxamide] | 69.48 | 707 | 79.00 | 788 | 78.76 | 1180 | 3.2 | 427 | 1.03 | 69.48 | 110 |  |  |
| CCCN1C[C@H](C(=O)N2[C@@H](C)C[C@@H]2C)C=C2c3cccc4[nH]c(Br)c(c34)C[C@H]21 [Compound 47, ((6aR,9R)-5-bromo-7-propyl-4,6,6a,7,8,9-hexahydroindolo[4,3-fg]quinolin-9-yl)((2S,4S)-2,4-dimethylazetidin-1-yl)methanone] | 62.15 | 93.6 | 87.01 | 1440 | 76.22 | 4960 | 5.6 | 249 | 1.38 | 57.01 | 117 |  |  |

Source: patent US20230116703A1, “NOVEL ERGOLINES AND METHODS OF TREATING MOOD DISORDERS” (priority 2021, published 2023)
